Series [1] has as its system normal adult human subjects (vasoconstriction). The series can be described thus: topical anti-inflammatory activity, modified Stoughton/McKenzie vasoconstriction assay in humans. Format: in vivo. From the text:
The compounds of Formula (I) where R is alkyl of 1-6 carbon atoms, haloalkyl of 1-6 carbons or phenyl or benzyl optionally substituted on the phenyl ring with alkyl of 1-4 carbons, alkoxy of 1-4 carbons or halo and R^1, R^2, X^1, X^2, X^3 and X^4 are as defined in the broadest aspect of the invention are useful for the relief of inflamed conditions in mammals, and more specifically are useful for relieving inflammatory manifestations of corticosteroid responsive dermatoses. Initial approximation of anti-inflammatory activity is done by following the procedure of McKenzie, S. W. and Stoughton, R. B., "Methods for Comparing Percutaneous Absorption of Steroids" Arch Dermat, 86, (1962) or modifications thereof.
The topical anti-inflammatory activity potential for each compound was assayed using a modified Stoughton/-McKenzie vaso-constriction assay in humans, V. A. Place, et al, Arch. Dermat. 101, 531-537 (1970). Eight normal adult human subjects were treated on each forearm by topical administration with alcohol solutions containing 1×10^-5 and 1×10^-6 g/ml of each of the compounds to provide 64 total test sites for each compound in a series (32 for each concentration). […] Twenty-four hours after application, the presence of vasoconstriction is noted by visual examination, and expressed as the number of sites responding (vasoconstriction). […]

The subject of the next series is thymus gland. The conditions noted are these: rat, in vivo, sc. As to the method: The compounds to be tested for thymolytic activity including a hydrocortisone (HC) standard, were prepared in three or more concentrations by suspension in a sodium carboxymethyl-cellulose vehicle. Animals received the test materials by subcutaneous injection of 0.5 ml of the suspension on each of three successive days. Four hours following the final injection, the rats were sacrificed and the thymus gland of each animal removed and weighed. These weights are then employed to establish dose-response graphs by methods known in the art.

A short description of series [2]: therapeutic advantage (topical potency versus systemic activity). It counts as in vivo. The conditions noted are these: in words. Here is the method: The topical anti-inflammatory activity potential for each compound was assayed using a modified Stoughton/-McKenzie vaso-constriction assay in humans, V. A. Place, et al, Arch. […]. 101, 531-537 (1970). Eight normal adult human subjects were treated on each forearm by topical administration with alcohol solutions containing 1×10^-5 and 1×10^-6 g/ml of each of the compounds to provide 64 total test sites for each compound in a series (32 for each concentration). Areas of the subjects' forearms were outlined by a rubber stamp grid coated with silicone grease, and 10 microliters are applied per 7×7 mm square site. After the preparations have dried, the areas on each forearm are covered with Saran® wrap and the margins sealed with tape. The occlusive wrap is removed after 18 hours. Twenty-four hours after application, the presence of vasoconstriction is noted by visual examination, and expressed as the number of sites responding (vasoconstriction). Fluocinolone acetonide is used as a standard. Also, the intensity of the vasoconstriction is scorred on a 0, 1, 2 scale, 2 being the most intense reaction. Both scores are used in constructing dose-response graphs according to methods set forth in an article by V. A. Place et al, infra. […]

The nature of series [3]: LD50, single subcutaneous injection, mortality observed for 21 days. The conditions noted are these: mouse, in vivo, sc; Swiss-Webster mice, subcutaneous, 21 days observation. It counts as in vivo, mouse. As to the method: (§1) Six Swiss-Webster mice (Simonsen) each weighing about 25 grams, were injected subcutaneously with a solution of methyl 6α,9α-difluoro-11β-hydroxy-16α-methyl-3-oxo-17α-n-propionyloxyandrosta-1,4-diene 17β-thiocarboxylate in […] having a concentration of 10 ml/kg. The dosage was 25 mg/kg or about 0.625 mg/mouse. The mice were observed daily for mortality for 21 days.

The next series deals with Swiss-Webster mice. The description is as above. It counts as in vivo, mouse. The conditions noted are these: six mice, 25 mg/kg subcutaneous, 21 days. Here is the method:
as §1

Regarding `CCC(=O)O[C@]1(C(=O)OC)[C@H](C)C[C@H]2[C@@H]3C[C@H](F)C4=C(F)C(=O)C=C[C@]4(C)[C@@]3(F)[C@@H](O)C[C@@]21C` [methyl 4,6α,9α-trifluoro-11β-hydroxy-16α-methyl-3-oxo-17α-propionyloxyandrosta-1,4-diene 17β-carboxylate], the “topical potency relative to FA” value in series [1] (alcohol solutions 1×10^-5 and 1×10^-6 g/ml, fluocinolone acetonide standard) was 1-2 time FA. In addition, in series [1] (in words), the topical potency entry is given as “excellent topical potency”. Moreover, in the series on thymus gland, the “systemic activity relative to HC” value is 10 times HC and the thymolytic activity entry is “slight activity in the dose range of hydrocortisone”. For the same compound, the therapeutic advantage result in series [2] is on record as “distinct therapeutic advantage”.

As usually defined, the LD50 is the dose expected to kill half of the subjects tested. Low values mean greater toxicity, high ones lower toxicity. In series [3], `CCC(=O)O[C@]1(C(=O)SC)[C@H](C)C[C@H]2[C@@H]3C[C@H](F)C4=CC(=O)C=C[C@]4(C)[C@@]3(F)[C@@H](O)C[C@@]21C` [methyl 6α,9α-difluoro-11β-hydroxy-16α-methyl-3-oxo-17α-n-propionyloxyandrosta-1,4-diene 17β-thiocarboxylate] came in with an LD50 at 504 h above 25 mg/kg. In the series on Swiss-Webster mice, the mortality result was “One mouse died”.

(Values after patent publication US4261986A, “4-Halo etianic acids and derivatives thereof” (Syntex (U.S.A.) Inc., priority 1979, dated 1981).)
